Test results taken from the NIST ThermoML archive (doi:10.1021/je100888h).
Numbers after ± are expanded uncertainties.

Assays:
[1] = xn = mol fraction of the nth substance listed; conditions: 101 kPa, Liquid
[2] = 101 kPa, Liquid

Cc1ccc(O)cc1 [4-methylphenol] + O
[1], 303.15 K
Conditions | mass density [kg/m3]
x1 = 0.548 | 1020.42 ± 0.17
x1 = 0.6243 | 1021.77 ± 0.18
x1 = 0.6758 | 1022.35 ± 0.18
x1 = 0.74 | 1023.33 ± 0.18
x1 = 0.7976 | 1023.92 ± 0.18
x1 = 0.8897 | 1025.1 ± 0.18

Cc1ccccc1O [2-methylphenol]
Conditions | mass density [kg/m3]
[2], 303.15 K | 1036.94 ± 0.4

Cc1ccc(O)cc1 [4-methylphenol]
Conditions | mass density [kg/m3]
[2], 303.15 K | 1025.9 ± 0.19

Cc1cccc(O)c1 [3-methylphenol] + O
[1], 303.15 K
Conditions | mass density [kg/m3]
x1 = 0.547 | 1020.94 ± 0.17
x1 = 0.5754 | 1021.37 ± 0.18
x1 = 0.6312 | 1022.09 ± 0.18
x1 = 0.6558 | 1022.4 ± 0.18
x1 = 0.704 | 1022.95 ± 0.18
x1 = 0.7933 | 1023.97 ± 0.18
x1 = 0.7997 | 1024.04 ± 0.18
x1 = 0.8215 | 1024.36 ± 0.18
x1 = 0.845 | 1024.52 ± 0.18
x1 = 0.8635 | 1024.3 ± 0.18
x1 = 0.8759 | 1024.67 ± 0.18
x1 = 0.8839 | 1024.94 ± 0.18
x1 = 0.9231 | 1025.3 ± 0.18
x1 = 0.9426 | 1025.49 ± 0.18
x1 = 0.9703 | 1025.78 ± 0.18

Cc1cccc(O)c1 [3-methylphenol] + Cc1ccccc1
[1], 303.15 K
Conditions | mass density [kg/m3]
x2 = 0.0563 | 1016.89 ± 0.17
x2 = 0.0853 | 1012.17 ± 0.17
x2 = 0.1619 | 999.57 ± 0.15
x2 = 0.2521 | 984.6 ± 0.17
x2 = 0.3053 | 975.73 ± 0.19
x2 = 0.3799 | 963.22 ± 0.2
x2 = 0.4494 | 951.45 ± 0.22
x2 = 0.5205 | 939.49 ± 0.24
x2 = 0.7198 | 905.42 ± 0.28
x2 = 0.8129 | 889.49 ± 0.3
x2 = 0.8723 | 879.32 ± 0.32
x2 = 0.9534 | 865.4 ± 0.34

Cc1ccccc1O [2-methylphenol] + O
[1], 303.15 K
Conditions | mass density [kg/m3]
x1 = 0.5953 | 1033.22 ± 0.27
x1 = 0.675 | 1034.33 ± 0.29
x1 = 0.8012 | 1035.55 ± 0.33
x1 = 0.8184 | 1035.9 ± 0.34
x1 = 0.8443 | 1036.16 ± 0.35
x1 = 0.8903 | 1036.47 ± 0.36
x1 = 0.8909 | 1036.26 ± 0.36
x1 = 0.9409 | 1036.95 ± 0.38

Oc1ccccc1 [phenol]
Conditions | mass density [kg/m3]
[2], 313.15 K | 1058.3 ± 0.25

Cc1ccccc1 [toluene]
[2]
Conditions | mass density [kg/m3]
303.15 K | 857.47 ± 0.35
313.15 K | 848.07 ± 0.36

CCCCCCCC [octane]
Conditions | mass density [kg/m3]
[2], 303.15 K | 694.52 ± 0.62

Cc1ccc(O)cc1 [4-methylphenol] + Cc1ccccc1
[1], 303.15 K
Conditions | mass density [kg/m3]
x2 = 0.0588 | 1016.31 ± 0.17
x2 = 0.1156 | 1007.12 ± 0.16
x2 = 0.1715 | 997.89 ± 0.15
x2 = 0.2813 | 979.91 ± 0.18
x2 = 0.3882 | 962.16 ± 0.21
x2 = 0.4914 | 944.32 ± 0.23
x2 = 0.5885 | 929.7 ± 0.25
x2 = 0.6906 | 912.26 ± 0.27
x2 = 0.775 | 897.37 ± 0.29
x2 = 0.8337 | 887.52 ± 0.31
x2 = 0.886 | 877.87 ± 0.32
x2 = 0.962 | 864.24 ± 0.34

Cc1ccccc1O [2-methylphenol] + CCCCCCCC
[1], 303.15 K
Conditions | mass density [kg/m3]
x2 = 0.0779 | 998.31 ± 0.32
x2 = 0.1634 | 958.43 ± 0.36
x2 = 0.2569 | 918.23 ± 0.4
x2 = 0.299 | 901.26 ± 0.41
x2 = 0.36 | 877.71 ± 0.44
x2 = 0.4277 | 853.18 ± 0.46
x2 = 0.4797 | 835.08 ± 0.48
x2 = 0.5787 | 803.61 ± 0.5
x2 = 0.6607 | 779.19 ± 0.53
x2 = 0.7664 | 750.13 ± 0.55
x2 = 0.8032 | 740.51 ± 0.56
x2 = 0.9143 | 713.35 ± 0.59

Cc1cccc(O)c1 [3-methylphenol]
Conditions | mass density [kg/m3]
[2], 303.15 K | 1025.95 ± 0.19

Cc1cccc(O)c1 [3-methylphenol] + CCCCCCCC
[1], 303.15 K
Conditions | mass density [kg/m3]
x2 = 0.1197 | 970.59 ± 0.2
x2 = 0.2473 | 916.86 ± 0.28
x2 = 0.3868 | 864.19 ± 0.36
x2 = 0.5012 | 825.55 ± 0.43
x2 = 0.6387 | 783.91 ± 0.48
x2 = 0.7818 | 745.29 ± 0.54
x2 = 0.8773 | 721.91 ± 0.57

Cc1ccccc1O [2-methylphenol] + Cc1ccccc1
[1], 303.15 K
Conditions | mass density [kg/m3]
x2 = 0.0529 | 1027.55 ± 0.37
x2 = 0.0849 | 1021.91 ± 0.35
x2 = 0.1409 | 1011.86 ± 0.31
x2 = 0.203 | 1000.75 ± 0.28
x2 = 0.2749 | 987.89 ± 0.27
x2 = 0.341 | 975.95 ± 0.28
x2 = 0.4343 | 959.13 ± 0.28
x2 = 0.5187 | 943.88 ± 0.29
x2 = 0.6073 | 927.88 ± 0.29
x2 = 0.6873 | 913.43 ± 0.3
x2 = 0.7547 | 901.26 ± 0.31
x2 = 0.7852 | 895.73 ± 0.31
x2 = 0.8381 | 886.24 ± 0.32
x2 = 0.8481 | 884.43 ± 0.32
x2 = 0.9068 | 873.9 ± 0.33
x2 = 0.9346 | 869.01 ± 0.34
x2 = 0.9737 | 862.08 ± 0.34

Oc1ccccc1 [phenol] + O
[1], 313.15 K
Conditions | mass density [kg/m3]
x1 = 0.3794 | 1038.84 ± 0.2
x1 = 0.4653 | 1042.74 ± 0.21
x1 = 0.6176 | 1048.12 ± 0.22
x1 = 0.7052 | 1050.69 ± 0.23
x1 = 0.8247 | 1054.06 ± 0.23
x1 = 0.9099 | 1056.28 ± 0.24

Oc1ccccc1 [phenol] + Cc1ccccc1
[1], 313.15 K
Conditions | mass density [kg/m3]
x2 = 0.0999 | 1033.8 ± 0.21
x2 = 0.1576 | 1021.66 ± 0.19
x2 = 0.2581 | 998.46 ± 0.17
x2 = 0.3492 | 978.14 ± 0.19
x2 = 0.4363 | 959.22 ± 0.22
x2 = 0.5438 | 936.46 ± 0.25
x2 = 0.6351 | 917.72 ± 0.27
x2 = 0.7288 | 898.99 ± 0.29
x2 = 0.8334 | 878.75 ± 0.32
x2 = 0.9015 | 865.97 ± 0.34
